{"source": "paper PMC11063903", "about": "“Engineering a human P2X2 receptor with altered ligand selectivity in yeast” (The Journal of Biological Chemistry, 2024)", "key": {"P2X2 F303L": {"target": "T1, P2X2 F303L (Homo sapiens, UniProt Q9UBL9, F303L)", "T1 construct": "expressed in transfected cells; host or cells: Saccharomyces cerevisiae BY4741 derivative, genome-integrated, galactose-inducible", "T1 sequence (Q9UBL9 whole entry F303L, the tested form may be a part)": "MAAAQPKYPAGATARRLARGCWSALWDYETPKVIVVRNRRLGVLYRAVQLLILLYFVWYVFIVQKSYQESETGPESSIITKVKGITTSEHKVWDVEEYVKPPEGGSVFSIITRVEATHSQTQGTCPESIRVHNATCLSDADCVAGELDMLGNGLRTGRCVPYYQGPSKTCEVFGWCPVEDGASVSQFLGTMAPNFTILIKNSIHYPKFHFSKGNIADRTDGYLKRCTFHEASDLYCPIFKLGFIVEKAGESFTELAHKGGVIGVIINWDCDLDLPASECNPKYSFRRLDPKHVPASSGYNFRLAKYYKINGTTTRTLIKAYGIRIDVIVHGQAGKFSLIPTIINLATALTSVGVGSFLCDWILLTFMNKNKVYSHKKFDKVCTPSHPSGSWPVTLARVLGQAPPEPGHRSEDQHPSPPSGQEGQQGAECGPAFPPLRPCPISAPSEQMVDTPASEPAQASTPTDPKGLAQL", "assay": "Site-saturation screen of ligand-binding domain with ATP, F303L", "assay_type": "cell-based", "details": "500 μM ATP, ± sd", "text": "(§1) The yeast P2X2 screening platform poses an opportunity to probe the structure-function of the ligand-binding domain in detail. The conserved P2X “NFR” motif at residues 300 to 302 is directly involved in bonding to the ATP triphosphate moiety ([41]), so we mutagenized residues at or near this motif (298–304), ultimately covering 133 variants (7 sites, 19 residues each). […] We compared our results to phylogenetic data based on a multiple sequence alignment (MSA) from a curated set of 419 related P2X homologs (Figs. 3B, and S5; Table S1).\n(§2) Figure 3 Structure-function analysis of the ligand binding domain.A, heat map summarizing the screening data of ATP with seven site-saturation libraries surrounding the NFR-motif. B, sequence-logo plot of the mutagenized residues and percent identity scores as determined from MSA. C, homology model of P2X2 colored by sequence conservation as calculated from a multiple sequence alignment of 419 related P2X genes. Conservation is scored on a log scale where maroon is more conserved and blue is less conserved. D, ATP in the ligand-binding pocket of P2X2. […]\n(§3) GCaMP assays were performed as follows. […] Cells were loaded onto a black, clear bottom microplate and imaged on a FlexStation3 plate reader. […] Fluorescence was measured with an excitation at 485 nm, and emission 525 nm. […] For strains with mScarlet, fluorescence was read with excitation 570 nm/emission 610 nm. […]"}, "P2X2 A304H": {"target": "T2, P2X2 A304H (Homo sapiens, UniProt Q9UBL9, A304H)", "T2 construct": "expressed in transfected cells; host or cells: Saccharomyces cerevisiae BY4741 derivative, genome-integrated, galactose-inducible", "T2 sequence (Q9UBL9 whole entry A304H, the tested form may be a part)": "as the sequence (Q9UBL9 whole entry F303L, the tested form may be a part) above, with L303F, A304H counted along it", "assay": "Site-saturation screen of ligand-binding domain with ATP, A304H", "assay_type": "cell-based", "details": "500 μM ATP, ± sd", "text": "as §1, §2, §3"}, "P2X2 A304V": {"target": "T3, P2X2 A304V (Homo sapiens, UniProt Q9UBL9, A304V)", "T3 construct": "expressed in transfected cells; host or cells: Saccharomyces cerevisiae BY4741 derivative, genome-integrated, galactose-inducible", "T3 sequence (Q9UBL9 whole entry A304V, the tested form may be a part)": "as the sequence (Q9UBL9 whole entry F303L, the tested form may be a part) above, with L303F, A304V counted along it", "assay": "Site-saturation screen of ligand-binding domain with ATP, A304V", "assay_type": "cell-based", "details": "500 μM ATP, ± sd", "text": "as §1, §2, §3"}, "P2X2 A304I": {"target": "T4, P2X2 A304I (Homo sapiens, UniProt Q9UBL9, A304I)", "T4 construct": "expressed in transfected cells; host or cells: Saccharomyces cerevisiae BY4741 derivative, genome-integrated, galactose-inducible", "T4 sequence (Q9UBL9 whole entry A304I, the tested form may be a part)": "as the sequence (Q9UBL9 whole entry F303L, the tested form may be a part) above, with L303F, A304I counted along it", "assay": "Site-saturation screen of ligand-binding domain with ATP, A304I", "assay_type": "cell-based", "details": "500 μM ATP, ± sd", "text": "as §1, §2, §3"}, "[1]": {"target": "T5, P2X2 G353 threonine substitution (G353T) (Homo sapiens, UniProt Q9UBL9, G353T)", "T5 construct": "expressed in transfected cells; host or cells: S. cerevisiae BY4741 background", "T5 sequence (Q9UBL9 whole entry G353T)": "as the sequence (Q9UBL9 whole entry F303L, the tested form may be a part) above, with L303F, G353T counted along it", "assay": "Site-saturation screen, fast kinetic assay in yeast, G353 threonine", "assay_type": "cell-based", "details": "500 μM ATP, ΔF/ΔT normalized to WT", "method": "(§4) Figure 2 P2X2 SNP testing.A, homology model of P2X2 with the clinically implicated SNPs highlighted. V60 is highlighted in magenta and G353 is highlighted in dark blue. Lines indicate the positions of the mutations on each of the three monomers. B, zoomed view of the transmembrane region from the purple box in (A). V60 is magenta and G353 is dark blue. The structure is rotated 60° on the right image. C, screening data from site-saturation of the V60 residue in saturating ATP concentration (500 μM f.c.) using the fast kinetic assay. Signal onset values (ΔF/ΔT) are normalized to values from the WT receptor. […] Each of 2 to 3 replicates is represented as a single point. […]\n(§5) GCaMP assays were performed as follows. […] Cells were loaded onto a black, clear bottom microplate and imaged on a FlexStation3 plate reader. […] Fluorescence was measured with an excitation at 485 nm, and emission 525 nm. […] For strains with mScarlet, fluorescence was read with excitation 570 nm/emission 610 nm. Slopes were calculated from the last 6 points of measurement and were normalized to the positive control samples. Any replicate in which the mScarlet value was measured to be over 2 standard deviations less than the mean for that set was discarded from further analysis."}, "P2X2 A304F": {"target": "T6, P2X2 A304F (Homo sapiens, UniProt Q9UBL9, A304F)", "T6 construct": "expressed in transfected cells; host or cells: Saccharomyces cerevisiae BY4741 derivative, genome-integrated, galactose-inducible", "T6 sequence (Q9UBL9 whole entry A304F, the tested form may be a part)": "as the sequence (Q9UBL9 whole entry F303L, the tested form may be a part) above, with L303F, A304F counted along it", "assay": "Site-saturation screen of ligand-binding domain with ATP, A304F", "assay_type": "cell-based", "details": "500 μM ATP, ± sd", "text": "as §1, §2, §3"}, "P2X2 F303I": {"target": "T7, P2X2 F303I (Homo sapiens, UniProt Q9UBL9, F303I)", "T7 construct": "expressed in transfected cells; host or cells: S. cerevisiae BY4741 background", "T7 sequence (Q9UBL9 whole entry F303I, the tested form may be a part)": "as the sequence (Q9UBL9 whole entry F303L, the tested form may be a part) above, with L303I counted along it", "assay": "Site-saturation screen of ligand-binding domain with ATP, F303I", "assay_type": "cell-based", "details": "500 μM ATP, ± sd", "text": "as §1, §2, §3"}, "P2X2 Y299H": {"target": "T8, P2X2 Y299H (Homo sapiens, UniProt Q9UBL9, Y299H)", "T8 construct": "expressed in transfected cells; host or cells: S. cerevisiae BY4741 background", "T8 sequence (Q9UBL9 whole entry Y299H, the tested form may be a part)": "as the sequence (Q9UBL9 whole entry F303L, the tested form may be a part) above, with Y299H, L303F counted along it", "assay": "Site-saturation screen of ligand-binding domain with ATP, Y299H", "assay_type": "cell-based", "details": "500 μM ATP, ± sd", "text": "as §1, §2, §3"}, "P2X2 N300T": {"target": "T9, P2X2 N300T (Homo sapiens, UniProt Q9UBL9, N300T)", "T9 construct": "expressed in transfected cells; host or cells: S. cerevisiae BY4741 background", "T9 sequence (Q9UBL9 whole entry N300T, the tested form may be a part)": "as the sequence (Q9UBL9 whole entry F303L, the tested form may be a part) above, with N300T, L303F counted along it", "assay": "Site-saturation screen of ligand-binding domain with ATP, N300T", "assay_type": "cell-based", "details": "500 μM ATP, ± sd", "text": "as §1, §2, §3"}, "[2]": {"target": "T10, P2X2 G353 histidine substitution (G353H) (Homo sapiens, UniProt Q9UBL9, G353H)", "T10 construct": "expressed in transfected cells; host or cells: S. cerevisiae BY4741 background", "T10 sequence (Q9UBL9 whole entry G353H)": "as the sequence (Q9UBL9 whole entry F303L, the tested form may be a part) above, with L303F, G353H counted along it", "assay": "Site-saturation screen, fast kinetic assay in yeast, G353 histidine", "assay_type": "cell-based", "details": "500 μM ATP, ΔF/ΔT normalized to WT", "method": "as §4, §5"}, "P2X2 G298 substitutions": {"test_system": "P2X2 G298 substitutions", "assay": "Site-saturation screen of ligand-binding domain with ATP, G298 substitutions", "assay_type": "cell-based, human", "details": "500 μM ATP", "text": "as §1, §2, §3"}, "P2X2 Y299F": {"target": "T11, P2X2 Y299F (Homo sapiens, UniProt Q9UBL9, Y299F)", "T11 construct": "expressed in transfected cells; host or cells: S. cerevisiae BY4741 background", "T11 sequence (Q9UBL9 whole entry Y299F, the tested form may be a part)": "as the sequence (Q9UBL9 whole entry F303L, the tested form may be a part) above, with Y299F, L303F counted along it", "assay": "Site-saturation screen of ligand-binding domain with ATP, Y299F", "assay_type": "cell-based", "details": "500 μM ATP, ± sd", "text": "as §1, §2, §3"}}}
{"compound": "Nc1ncnc2c1ncn2[C@@H]1O[C@H](COP(=O)(O)OP(=O)(O)OP(=O)(O)O)[C@@H](O)[C@H]1O", "note": "[ATP]", "values": [{"measurement": "signal, % of WT signaling", "setting": "P2X2 F303L", "result": "108 ± 89", "unit": "%"}, {"measurement": "signal, % of WT signaling", "setting": "P2X2 A304H", "result": "27 ± 18", "unit": "%"}, {"measurement": "signal, % of WT signaling", "setting": "P2X2 A304V", "result": "32 ± 2.1", "unit": "%"}, {"measurement": "signal, % of WT signaling", "setting": "P2X2 A304I", "result": "24 ± 17", "unit": "%"}, {"measurement": "signaling, % of WT activity", "setting": "[1]", "result": 50, "unit": "%"}, {"measurement": "signal, % of WT signaling", "setting": "P2X2 A304F", "result": "57 ± 2.6", "unit": "%"}, {"measurement": "signal, % of WT signaling", "setting": "P2X2 F303I", "result": "90 ± 42", "unit": "%"}, {"measurement": "signal relative to WT", "setting": "P2X2 Y299H", "result": "11 ± 5", "unit": "%"}, {"measurement": "signal, % of WT signaling", "setting": "P2X2 N300T", "result": "51 ± 10", "unit": "%"}, {"measurement": "signaling, % of WT activity", "setting": "[2]", "result": 32, "unit": "%"}, {"measurement": "ligand gating activity compared to the negative control", "setting": "P2X2 G298 substitutions", "result": "none of the G298 substitutions exhibiting ligand gating activity"}, {"measurement": "signal relative to WT", "setting": "P2X2 Y299F", "result": "21 ± 12", "unit": "%"}]}
